# From ChEMBL document CHEMBL2417501, “Synthesis of 4-aminoquinoline-pyrimidine hybrids as potent antimalarials and their mode of action studies” (Eur J Med Chem, 2013)
# Tests used:
# [1] = test system: Cytomegalovirus; assay: Antiviral activity against Cytomegalovirus Davis infected in human HEL cells assessed as reduction of plaque formation; assay type: functional, organism-based; conditions: Human betaherpesvirus 5, Davis
# [2] = test system: Influenza A virus; assay: Antiviral activity against influenza A virus H1N1 subtype infected in dog MDCK cells assessed as reduction of virus-induced cytopathogenicity by MTS assay; assay type: functional, organism-based
# [3] = test system: Human respirovirus 3; assay: Antiviral activity against Parainfluenza-3 virus infected in african green monkey Vero cells assessed as reduction of virus-induced cytopathogenicity; assay type: functional, organism-based; conditions: Human respirovirus 3, Vero
# [4] = Cytotoxicity against cat CRFK cells; assay type: cell-based, Felis catus
# [5] = test system: Human alphaherpesvirus 2; assay: Antiviral activity against Herpes simplex virus-2 G infected in human HEL cells assessed as reduction of virus-induced cytopathogenicity; assay type: functional, organism-based; conditions: Human alphaherpesvirus 2, strain G
# [6] = test system: Coxsackievirus; assay: Antiviral activity against Coxsackievirus B4 infected in african green monkey Vero cells assessed as reduction of virus-induced cytopathogenicity; assay type: functional, organism-based
# [7] = Cytotoxicity against african green monkey Vero cells; assay type: cell-based; conditions: chlorocebus sabaeus
# [8] = test system: Human alphaherpesvirus 1; assay: Antiviral activity against Herpes simplex virus-1 KOS infected in human HEL cells assessed as reduction of virus-induced cytopathogenicity; assay type: functional, organism-based; conditions: Human alphaherpesvirus 1, KOS
# [9] = test system: Influenza A virus; assay: Antiviral activity against influenza A virus […] subtype infected in dog MDCK cells assessed as reduction of virus-induced cytopathogenicity by MTS assay; assay type: functional, organism-based
# [10] = test system: Plasmodium falciparum; assay: Antimalarial activity against chloroquine-sensitive Plasmodium falciparum D10 by two-fold dilution technique; assay type: functional, organism-based
# [11] = Cytotoxicity against human HeLa cells; assay type: cell-based
# [12] = test system: Human alphaherpesvirus 3; assay: Antiviral activity against TK-positive Varicella-zoster virus OKA infected in human HEL cells assessed as reduction of plaque formation; assay type: functional, cell-based; conditions: Human alphaherpesvirus 3, strain Oka vaccine
# [13] = test system: Cytomegalovirus; assay: Antiviral activity against Cytomegalovirus AD-169 infected in human HEL cells assessed as reduction of plaque formation; assay type: functional, organism-based; conditions: Human betaherpesvirus 5, AD-169, HEL
# [14] = test system: Influenza B virus; assay: Antiviral activity against influenza B virus infected in dog MDCK cells assessed as reduction of virus-induced cytopathogenicity by MTS assay; assay type: functional, organism-based
# [15] = test system: Feline coronavirus; assay: Antiviral activity against Feline coronavirus infected in cat CRFK cells assessed as reduction of virus-induced cytopathogenicity by MTS assay; assay type: functional, organism-based; conditions: Alphacoronavirus 1, CRFK
# [16] = test system: Vesicular stomatitis virus; assay: Antiviral activity against Vesicular stomatitis virus infected in human HEL cells assessed as reduction of virus-induced cytopathogenicity; assay type: functional, organism-based
# [17] = test system: Vesicular stomatitis virus; assay: Antiviral activity against Vesicular stomatitis virus infected in human HeLa cells assessed as reduction of virus-induced cytopathogenicity; assay type: functional, organism-based
# [18] = test system: Coxsackievirus; assay: Antiviral activity against Coxsackievirus B4 infected in human HeLa cells assessed as reduction of virus-induced cytopathogenicity; assay type: functional, organism-based
# [19] = test system: Felid alphaherpesvirus 1; assay: Antiviral activity against feline herpesvirus infected in cat CRFK cells assessed as reduction of virus-induced cytopathogenicity by MTS assay; assay type: functional, organism-based; conditions: Felid alphaherpesvirus 1, CRFK
# [20] = test system: Mammalian orthoreovirus 1; assay: Antiviral activity against Reovirus-1 infected in african green monkey Vero cells assessed as reduction of virus-induced cytopathogenicity; assay type: functional, organism-based; conditions: Mammalian orthoreovirus 1, Vero
# [21] = test system: MDCK; assay: (§1) Cytotoxicity against MDCK cells assessed as cell viability after 4 days by MTS assay; assay type: cell-based, Canis lupus familiaris; conditions: dog, mdck, 96 h
# [22] = as §1; assay type: cell-based, Canis lupus familiaris; conditions: dog, MDCK cells
# [23] = test system: Punta Toro virus; assay: Antiviral activity against […] infected in african green monkey Vero cells assessed as reduction of virus-induced cytopathogenicity; assay type: functional, organism-based
# [24] = Inhibition of beta-hematin formation at 1 mg/ml; assay type: functional
# [25] = test system: Human alphaherpesvirus 1; assay: Antiviral activity against TK-negative Herpes simplex virus 1 KOS infected in human HEL cells assessed as reduction of virus-induced cytopathogenicity; assay type: functional, organism-based; conditions: Human alphaherpesvirus 1, KOS
# [26] = test system: Sindbis virus; assay: Antiviral activity against Sindbis virus infected in african green monkey Vero cells assessed as reduction of virus-induced cytopathogenicity; assay type: functional, organism-based
# [27] = Cytotoxicity against human HEL cells; assay type: cell-based
# [28] = test system: Human alphaherpesvirus 3; assay: Antiviral activity against […] Varicella-zoster virus 07-1 infected in human HEL cells assessed as reduction of plaque formation; assay type: functional, organism-based; conditions: Human alphaherpesvirus 3, 07-1, HEL
# [29] = test system: Respiratory syncytial virus; assay: Antiviral activity against Respiratory syncytial virus infected in human HeLa cells assessed as reduction of virus-induced cytopathogenicity; assay type: functional, organism-based
# [30] = test system: Plasmodium falciparum; assay: Antimalarial activity against chloroquine-resistant Plasmodium falciparum Dd2; assay type: functional, organism-based
# [31] = test system: DNA; assay: Binding affinity to calf thymus DNA assessed as change in melting temperature at 30 uM by UV-visible spectrophotometry; assay type: nucleic-acid assay; conditions: Bos taurus
smiles,measurement,setting,value
CCOC(=O)c1c(C)nc(NCCCCNc2ccnc3cc(Cl)ccc23)nc1-c1ccc(F)cc1,EC50,[1],> 4 µM
same,EC50,[2],> 4 µM
same,EC50,[3],> 4 µM
same,CC50,[4]; crfk,> 100 µM
same,EC50,[5],> 100 µM
same,EC50,[6],> 4 µM
same,MCC,[7],20 µM
same,EC50,[8],> 100 µM
same,EC50,[9]; read-out: EC50,> 4 µM
same,IC50,[10],2.76 µM
same,MCC,[11],> 100 µM
same,EC50,[12],> 4 µM
same,EC50,[13],> 4 µM
same,EC50,[14],> 4 µM
same,EC50,[15],> 100 µM
same,EC50,[16],> 100 µM
same,EC50,[17],> 100 µM
same,EC50,[18],> 100 µM
same,EC50,[19],> 100 µM
same,EC50,[20],> 4 µM
same,CC50,[21],11.4 µM
same,MCC at 96 h,[22],20 µM
same,EC50,[23],> 4 µM
same,inhibition,[24],59%
same,EC50,[25],> 100 µM
same,EC50,[26],> 4 µM
same,MCC,[27],≥ 20 µM
same,EC50,[28],> 4 µM
same,EC50,[29],> 100 µM
CS(=O)(=O)c1ccc(-c2cnc(N)c(-c3ccc(C(F)(F)F)nc3)c2)cc1 [MMV-048],IC50,[30],0.0178 µM
NC12CC3CC(CC(C3)C1)C2 [AMANTADINE],EC50,[2],17 µM
same,EC50,[9],0.3 µM
same,EC50,[14],> 200 µM
same,MCC at 96 h,[22],> 200 µM
Nc1nc2c(ncn2COCCO)c(=O)[nH]1 [ACYCLOVIR],EC50,[16],> 250 µM
same,MCC,[27],> 250 µM
same,EC50,[28],144 µM
CCN(CC)CCCC(C)Nc1ccnc2cc(Cl)ccc12 (stereo unspecified),inhibition,[24],98%
same,ΔTm,[31],9 °C
NC(=O)c1ncn([C@@H]2O[C@H](CO)[C@@H](O)[C@H]2O)n1 [RIBAVIRIN],EC50,[2],2.5 µM
same,EC50,[3],146 µM
same,EC50,[6],> 250 µM
same,MCC,[7],> 250 µM
same,EC50,[9]; read-out: EC50,1.1 µM
same,MCC,[11],> 250 µM
same,EC50,[14],2.8 µM
same,EC50,[18],112 µM
same,EC50,[20],> 250 µM
same,MCC at 96 h,[22],> 100 µM
same,EC50,[26],> 250 µM
Nc1ccn(C[C@@H](CO)OCP(=O)(O)O)c(=O)n1 [CIDOFOVIR],EC50,[1],1.84 µM
same,EC50,[13],0.86 µM
same,EC50,[16],> 250 µM
same,MCC,[27],> 250 µM
Nc1nc2c(ncn2COC(CO)CO)c(=O)[nH]1 [GANCICLOVIR],EC50,[1],5.98 µM
same,CC50,[4]; CRFK cells,> 100 µM
same,EC50,[13],7.87 µM
same,EC50,[15],> 100 µM
same,EC50,[16],> 100 µM
same,EC50,[25],4 µM
same,MCC,[27],> 100 µM
